Results taken from patent publication US7868205B2, “Inhibitors of histone deacetylase” (MethylGene Inc., priority 2003, dated 2011).
pIC50: −log10 of the molar value. Like-named read-outs stand apart in the source and are kept apart here.

What was measured:
[1] = target: human HDAC-1 (Homo sapiens, UniProt Q13547); assay: Inhibition of histone deacetylase enzymatic (HDAC-1) activity; type: biochemical; conditions: for IC50: Table 5, Boc-Lys(Ac)-AMC substrate, 37° C., 20 minutes, read-out: HDAC-1 (μM), inhibition of histone deacetylase
Description: The following protocol was used to assay the compounds of the invention.
The mixture was pre-incubated for 5 minutes at room temperature. The reaction was started by bringing the temperature to 37° C. and adding 16 μl substrate.

[2] = tested on: HCT116 human colon cancer cells; assay: MTT assay, antiproliferative activity; type: cell-based; conditions: HCT-116, 72 hours
Description: (§1) Table 6C provides data on inhibition of HDAC1 enzyme, on antiproliferative activities (HCT116 human colon cancer cells) of the compounds using 3-[4,5-dimethylthiazol-2-yl-2,5-diphenyltetrazolium]bromide (MTT) assay, as well as induction of p21^WAF1/Cip1 tumor suppressor gene.
Compounds at various concentrations were added to human colon cancer HCT116 cells plated in 96-well plates. Cells were incubated for 72 hours at 37° C. in 5% CO2 incubator. MTT (3-[4,5-dimethylthiazol-2-yl]-2,5 diphenyl tetrazolium bromide, Sigma) was added at a final concentration of 0.5 mg/ml and incubated with the cells for 4 hours before an equal volume of solubilization buffer (50% N,N-dimethylformamide, 20% SDS, pH 4.7) was added onto cultured cells. After overnight incubation, solubilized dye was quantified by colorimetric reading at […] using a reference at 630 nM. OD values were converted to cell numbers according to a standard growth curve of the relevant cell line. The concentration which reduces cell numbers to 50% of those of DMSO-treated cells is determined as MTT IC50,

[3] = tested on: p21^WAF1/Cip1 tumor suppressor gene; assay: p21WAF1/Cip1 assay (p21 promoter-driven luciferase reporter); type: cell-based, human; conditions: reference compound, value designated
Description: as §1
HCT116 cells were stably transfected with reporter plasmids encoding the p21 promoter-driven luciferase. Cells were treated with indicated concentration of HDAC inhibitors for 16 hours before cells were harvested and luciferase activity analyzed. The effective concentration (EC) of MS-275 was designated as 1 uM. The ability of HDAC inhibitor was compared with that of MS-275 (T. Suzuki, et. al J. Med. Chem., 1999, 3001-3003).

[4] = Table 6A, comparative data for planar substituent, read-out: HDAC-1 activity (μm)
[5] = Table 6B, comparative data for planar substituent, read-out: HDAC-1 Activity

human HDAC-1, sequence (Q13547 whole entry): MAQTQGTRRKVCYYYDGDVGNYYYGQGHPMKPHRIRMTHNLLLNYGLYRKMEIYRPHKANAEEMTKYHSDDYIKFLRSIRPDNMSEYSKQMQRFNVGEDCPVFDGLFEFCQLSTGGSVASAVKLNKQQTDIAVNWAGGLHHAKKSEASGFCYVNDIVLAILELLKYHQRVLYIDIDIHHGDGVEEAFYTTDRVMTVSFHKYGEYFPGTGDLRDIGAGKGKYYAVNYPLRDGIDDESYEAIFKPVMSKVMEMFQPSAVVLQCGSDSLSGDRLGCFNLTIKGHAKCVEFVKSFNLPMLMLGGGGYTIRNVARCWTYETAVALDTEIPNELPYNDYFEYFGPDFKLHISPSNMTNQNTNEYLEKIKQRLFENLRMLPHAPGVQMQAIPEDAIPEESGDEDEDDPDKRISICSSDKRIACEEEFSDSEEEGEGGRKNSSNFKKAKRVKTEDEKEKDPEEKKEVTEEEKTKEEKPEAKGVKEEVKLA

| SMILES | IC50 [1] [µM] | pIC50 [2] | pIC50 ([1]; Table 6C) | also measured |
| --- | --- | --- | --- | --- |
| COc1ccc(NCc2ccc(C(=O)Nc3cc(C(F)(F)F)ccc3N)cc2)cc1OC [A, reference compound] | – | – | – | pIC50 [1, 4]: 4.70 to 6.00 |
| COc1ccc(NCc2ccc(C(=O)Nc3ccccc3N)cc2)cc1OC [AAA, reference compound] | – | – | – | pIC50 [1, 4]: > 6.00; pIC50 [1, 5]: > 6.00 |
| COc1ccc(NCc2ccc(C(=O)Nc3cc(F)c(F)cc3N)cc2)cc1OC [B, N-(2-amino-4,5-difluorophenyl)-4-{[(3,4-dimethoxyphenyl)amino]methyl}benzamide, reference compound] | 1 to 20 | – | – | – |
| Nc1ccc(-c2cccs2)cc1NC(=O)c1ccc(CNC(=O)OCc2cccnc2)cc1 [Compound 143a] | – | > 6.00 | – | – |
| Nc1ccc(-c2cccs2)cc1NC(=O)c1ccc(F)cc1 [Compound 143b] | – | 4.70 to 6.00 | > 6.00 | – |
| Nc1ccc(-c2cccs2)cc1NC(=O)c1ccc(SC(F)(F)F)cc1 [Compound 143c] | – | 4.70 to 6.00 | > 6.00 | – |
| Cc1ccc(S(=O)(=O)Nc2ccc(/C=C/C(=O)Nc3cc(-c4cccs4)ccc3N)cc2)cc1 [Compound 146] | – | > 6.00 | > 6.00 | – |
| CN1CCN(C(=O)Nc2ccc(C(=O)Nc3cc(-c4cccs4)ccc3N)cc2)CC1 [Compound 164] | – | > 6.00 | > 6.00 | – |
| N#Cc1ccc(C(=O)Nc2cc(-c3cccs3)ccc2N)cc1 [Compound 173] | – | 4.70 to 6.00 | > 6.00 | – |
| COc1cccc(C(=O)Nc2cc(-c3cccs3)ccc2N)c1 [Compound 181] | – | > 6.00 | > 6.00 | – |
| CC(=O)Oc1ccc(C(=O)Nc2cc(-c3cccs3)ccc2N)cc1 [Compound 184] | – | > 6.00 | > 6.00 | – |
| Nc1ccc(-c2cccs2)cc1NC(=O)c1ccc(CN2CCOCC2)cc1 [Compound 242] | – | > 6.00 | > 6.00 | – |
| COc1cc(OC)c2cc(C(=O)Nc3cc(-c4cccs4)ccc3N)oc2c1 [Compound 245e] | – | > 6.00 | > 6.00 | – |
| Nc1ccc(-c2cccs2)cc1NC(=O)c1ccc2c(c1)OCO2 [Compound 256a] | – | > 6.00 | > 6.00 | – |
| Nc1ccc(-c2cccs2)cc1NC(=O)c1ccc2c(c1)OCCO2 [Compound 256b] | – | > 6.00 | > 6.00 | – |
| COc1cc(C(=O)Nc2cc(-c3cccs3)ccc2N)cc2c1OCO2 [Compound 256c] | – | > 6.00 | > 6.00 | – |
| Nc1ccc(-c2cccs2)cc1NC(=O)c1ccc2[nH]cnc2c1 [Compound 258d] | – | > 6.00 | > 6.00 | – |
| Cn1cnc2cc(C(=O)Nc3cc(-c4cccs4)ccc3N)ccc21 [Compound 283] | – | > 6.00 | > 6.00 | – |
| Cn1nnc2cc(C(=O)Nc3cc(-c4cccs4)ccc3N)ccc21 [Compound 286] | – | 4.70 to 6.00 | > 6.00 | – |
| COc1ccc(NCc2ccc(C(=O)Nc3cc(-c4cccs4)ccc3[N+](=O)[O-])cc2)cc1OC [Cpd 5, 4-[(3,4-dimethoxy-phenylamino)-methyl]-N-(2-nitro-5-thiophen-2-yl-phenyl)-benzamide] | > 20 | – | – | – |
| COc1ccc(NCc2ccc(C(=O)Nc3cc(-c4cccs4)ccc3N)cc2)cc1OC [Cpd 6, N-[2-amino-5-(2-thienyl)phenyl]-4{[(3,4-dimethoxyphenyl)amino]methyl}benzamide] | < 1 | – | – | – |
| COc1ccc(NCc2ccc(C(=O)Nc3cc(-c4cccs4)ccc3N)cc2)cc1F [Cpd 12, N-[2-amino-5-(2-thienyl)phenyl]-4{[(3-fluoro-4-methoxyphenyl)amino]methyl}benzamide] | < 1 | – | – | – |
| COc1ccc(NCc2ccc(C(=O)Nc3ccc(-c4cccs4)cc3[N+](=O)[O-])cc2)cc1OC [Cpd 15, 4-[(3,4-dimethoxy-phenylamino)-methyl]-N-(2-nitro-4-thiophen-2-yl-phenyl)-benzamide] | > 20 | – | – | – |

| SMILES | IC50 [1] [µM] | pIC50 [2] | pIC50 ([1]; Table 6C) | also measured |
| --- | --- | --- | --- | --- |
| COc1ccc(NCc2ccc(C(=O)Nc3ccc(-c4cccs4)cc3N)cc2)cc1OC [Cpd 16, N-[2-amino-4-(2-thienyl)phenyl]-4-{[(3,4-dimethoxyphenyl)amino]methyl}benzamide] | 1 to 20 | – | – | – |
| COc1ccc(NCc2ccc(C(=O)Nc3ccc(Br)cc3N)cc2)cc1OC [Cpd 18, N-(2-amino-4-bromophenyl)-4-{[(3,4-dimethoxyphenyl)amino]methyl}benzamide] | 1 to 20 | – | – | – |
| COc1cc(CN2CCc3ccc(C(=O)Nc4cc(-c5cccs5)ccc4N)cc32)cc(OC)c1OC [Cpd 23, N-[2-amino-5-(2-thienyl)phenyl]-1-(3,4,5-trimethoxybenzyl)indoline-6-carboxamide] | < 1 | – | – | – |
| COc1cc(NCc2ccc3oc(C(=O)Nc4cc(-c5cccs5)ccc4N)cc3c2)cc(OC)c1OC [Cpd 29, N-[2-amino-5-(2-thienyl)phenyl]-5-{[(3,4,5-trimethoxyphenyl)amino]methyl}-1-benzofuran-2-carboxamide] | < 1 | – | – | – |
| COc1ccc(NCc2ccc(C(=O)Nc3cccc(-c4cccs4)c3)cc2)cc1OC [Cpd 32, 4-{[(3,4-dimethoxyphenyl)amino]methyl}-N-[3-(2-thienyl)phenyl]benzamide] | > 20 | – | – | – |
| COc1ccc(NCc2ccc(C(=O)Nc3cc(Cl)c(F)cc3N)cc2)cc1OC [Cpd 35, N-(2-Amino-5-chloro-4-fluoro-phenyl)-4-[(3,4-dimethoxy-phenylamino)-methyl]-benzamide] | 1 to 20 | – | – | – |
| COc1ccc(NCc2ccc(C(=O)Nc3cc(Cl)c(Cl)cc3N)cc2)cc1OC [Cpd 36, N-(2-Amino-4,5-dichloro-phenyl)-4-[(3,4-dimethoxy-phenylamino)-methyl]-benzamide] | 1 to 20 | – | – | – |
| Nc1ccc(-c2cccs2)cc1NC(=O)c1ccc(CNc2nccc(-c3cccnc3)n2)cc1 [Cpd 43, N-[2-amino-5-(2-thienyl)phenyl]-4{[(4-pyridin-3-ylpyrimidin-2-yl)amino]methyl}benzamide] | < 1 | – | – | – |
| CN(C)CCOc1ccc2nc(SCc3ccc(C(=O)Nc4cc(-c5cccs5)ccc4N)cc3)[nH]c2c1 [Cpd 50, N-[2-amino-5-(2-thienyl)phenyl]-4[({6-[2-(dimethylamino)ethoxy]-1H-benzimidazol-2-yl}thio)methyl]benzamide] | < 1 | – | – | – |
| COc1ccc(NCc2ccc(C(=O)Nc3csc(-c4ccccc4)c3N)cc2)cc1OC [Cpd 61, N-(4-amino-5-phenyl-3-thienyl)-4-{[(3,4-dimethoxyphenyl)amino]methyl}benzamide] | > 20 | – | – | – |
| COc1ccc(NCc2ccc(C(=O)Nc3csc(-c4cccs4)c3N)cc2)cc1OC [Cpd 62, N-(3-amino-2,2′-bithien-4-yl)-4-{[(3,4-dimethoxyphenyl)amino]methyl}benzamide] | > 20 | – | – | – |
| COc1cc(NCc2ccc(/C=C/C(=O)Nc3cc(-c4cccs4)ccc3N)cc2)cc(OC)c1OC [Cpd 67, trans-N-[2-amino-5-(2-thienyl)phenyl]-3-(4-{[(3,4,5-trimethoxyphenyl)amino]methyl}phenyl)acrylamide] | < 1 | – | – | – |
| CCCCc1ccc(N)c(NC(=O)c2ccc(CNc3ccc(OC)c(OC)c3)cc2)c1 [Cpd 68, N-(2-amino-5-butylphenyl)-4-{[(3,4-dimethoxyphenyl)amino]methyl}benzamide] | 1 to 20 | – | – | – |
| CCCCc1ccc(N)c(NC(=O)c2ccc(C)cc2)c1 [Cpd 69, N-(2-amino-5-butylphenyl)-4-methylbenzamide] | 1 to 20 | – | – | – |
| CCCCc1ccc(NC(=O)c2ccc(C)cc2)c(N)c1 [Cpd 71, N-(2-amino-4-butylphenyl)-4-methylbenzamide] | > 20 | – | – | – |
| COc1ccc(NCc2ccc(C(=O)Nc3cc(C#CCO)ccc3N)cc2)cc1OC [Cpd 76, N-[2-amino-5-(3-hydroxyprop-1-yn-1-yl)phenyl]-4-{[(3,4-dimethoxyphenyl)amino]methyl}benzamide] | < 1 | – | – | – |
| COc1ccc(NCc2ccc(C(=O)Nc3cc(Br)ccc3N)cc2)cc1OC [Cpd 87, N-(2-amino-5-bromophenyl)-4-{[(3,4-dimethoxyphenyl)amino]methyl}benzamide] | 1 to 20 | – | – | – |
| COc1ccc(NCc2ccc(C(=O)Nc3cc(/C=C/C(N)=O)ccc3N)cc2)cc1OC [Cpd 88, N-{2-amino-5-[(1E)-3-amino-3-oxoprop-1-en-1-yl]phenyl}-4-{[(3,4-dimethoxyphenyl)amino]methyl}benzamide] | 1 to 20 | – | – | – |
| COc1ccc(NCc2ccc(C(=O)Nc3cc(-c4ccoc4)ccc3N)cc2)cc1OC [Cpd 91, N-[2-amino-5-(3-furanyl)phenyl]-4-{[(3,4-dimethoxyphenyl)amino]methyl}benzamide] | – | – | – | pIC50 [1]: > 6.00 |
| COc1ccc(NCc2ccc(C(=O)Nc3c(N)cccc3N)cc2)cc1OC [Cpd 94, N-[2,6-diaminophenyl]-4-{[(3,4-dimethoxyphenyl)amino]methyl}benzamide] | 1 to 20 | – | – | – |
| Nc1ccccc1NC(=O)c1ccc(CNC(=O)OCc2cccnc2)cc1 [MS-275, reference compound] | – | – | – | effective concentration (EC) for p21 induction [3]: 1 µM |
| COc1cc(NCc2ccc(/C=C/C(=O)Nc3ccccc3N)cc2)cc(OC)c1OC [QQ, reference compound] | – | – | – | pIC50 [1, 5]: 4.70 to 6.00 |
